The values that follow come from ChEMBL document CHEMBL1157860, “CoMFA and CoMSIA studies on HIV-1 attachment inhibitors” (Eur J Med Chem, 2010).

The assay in a line: Inhibition of HIV1 gp120 binding to CD4 in human HeLa cells by cell fusion assay. Type of assay: cell-based, Human immunodeficiency virus 1.

In general, EC50 refers to the midpoint of the concentration-response curve. What is called pEC50 is the negative decadic logarithm of the EC50, by convention in mol/L. Low readings indicate a large EC50, high ones a small EC50.

With `O=C(C(=O)N1CCN(C(=O)c2ccccc2)CC1)c1c[nH]c2cccc(F)c12`, a half-maximal effect (EC50) was put at 2.59 nM and the negative-log EC50 (pEC50) amounted to 8.59.
In the same order, the values of `N#Cc1ccc2[nH]cc(C(=O)C(=O)N3CCN(C(=O)c4ccccc4)CC3)c2c1` are 121000 nM and 3.92.
The matching figures for `O=C(C(=O)N1CCN(C(=O)c2ccccc2)CC1)c1c[nH]c2c(Br)ccc(OC(F)(F)F)c12`: 42.8 nM and 7.37.
In the same order, the values of `CCc1cccc2c(C(=O)C(=O)N3CCN(C(=O)c4ccccc4)CC3)c[nH]c12` are 24.2 nM and 7.62.
Regarding `O=C(C(=O)N1CCN(C(=O)c2ccccc2)CC1)c1c[nH]c2cc(Cl)ccc12`, a half-maximal effect (EC50) was put at 208 nM and the pEC50 is given as 6.68.
The matching figures for `COc1cccc2[nH]cc(C(=O)C(=O)N3CCN(C(=O)c4ccccc4)CC3)c12`: 0.52 nM and 9.28.
The matching figures for `Cn1cc(C(=O)C(=O)N2CCN(C(=O)c3ccccc3)CC2)c2ccccc21`: 265 nM and 6.58.
In the same order, the values of `O=C(C(=O)N1CCN(C(=O)c2ccccc2)CC1)c1c[nH]c2ccc([N+](=O)[O-])cc12` are 3800 nM and 5.42.
`C=CCn1cc(C(=O)C(=O)N2CCN(C(=O)c3ccccc3)CC2)c2ccccc21` returned an EC50 of 6760 nM and a negative-log EC50 (pEC50) of 5.17.
In the same order, the values of `N#Cc1cccc2c(C(=O)C(=O)N3CCN(C(=O)c4ccccc4)CC3)c[nH]c12` are 4.9 nM and 8.31.
In the same order, the values of `Cc1ccc2[nH]cc(C(=O)C(=O)N3CCN(C(=O)c4ccccc4)CC3)c2c1` are 1550 nM and 5.81.
The compound `COc1ccc2c(C(=O)C(=O)N3CCN(C(=O)c4ccccc4)CC3)c[nH]c2c1` came in with an EC50 of 329 nM and a pEC50 of 6.48.
In turn, `O=C(C(=O)N1CCN(C(=O)c2ccccc2)CC1)c1c[nH]c2c(Br)cccc12` gave an EC50 of 17.4 nM and a pEC50 of 7.76.
In the same order, the values of `CC(=O)Oc1cccc2[nH]cc(C(=O)C(=O)N3CCN(C(=O)c4ccccc4)CC3)c12` are 24900 nM and 4.6.
In the same order, the values of `CCn1cc(C(=O)C(=O)N2CCN(C(=O)c3ccccc3)CC2)c2ccccc21` are 1450 nM and 5.84.
In the case of `O=C(C(=O)N1CCN(C(=O)c2ccccc2)CC1)c1c[nH]c2cc(F)ccc12`, the response was half-maximal at 21.1 nM (EC50) and the pEC50 turned out to be 7.68.
In the same order, the values of `O=C(C(=O)N1CCN(C(=O)c2ccccc2)CC1)c1c[nH]c2cccc(Cl)c12` are 4.3 nM and 8.37.
In turn, `O=C(C(=O)N1CCN(C(=O)c2ccccc2)CC1)c1c[nH]c2c(Cl)cccc12` gave a concentration for a half-maximal effect (EC50) of 4.4 nM and a pEC50 of 8.36.
The matching figures for `O=C(C(=O)N1CCN(C(=O)c2ccccc2)CC1)c1c[nH]c2ccc(Cl)cc12`: 395 nM and 6.4.
For `COc1cc2[nH]cc(C(=O)C(=O)N3CCN(C(=O)c4ccccc4)CC3)c2cc1OC`, the EC50 was 46500 nM and the pEC50 stood at 4.33.
On to `O=C(C(=O)N1CCN(C(=O)c2ccccc2)CC1)c1c[nH]c2c(F)ccc(F)c12`, for which a half-maximal response (EC50) required 0.35 nM and the pEC50 came out at 9.46.
`O=C(C(=O)N1CCN(C(=O)c2ccccc2)CC1)c1c[nH]c2c(OCC(F)(F)F)ccc(F)c12`: the midpoint of the response, the EC50, lay at 0.71 nM and the pEC50 came to 9.15.
The matching figures for `O=C(C(=O)N1CCN(C(=O)c2ccccc2)CC1)c1c[nH]c2cccc(Br)c12`: 4.5 nM and 8.35.
Consider `N#Cc1ccc(F)c2c(C(=O)C(=O)N3CCN(C(=O)c4ccccc4)CC3)c[nH]c12`, for which the EC50 turned out to be 1.9 nM and the pEC50 is 8.72.
The matching figures for `COc1ccc2[nH]cc(C(=O)C(=O)N3CCN(C(=O)c4ccccc4)CC3)c2c1`: 21100 nM and 4.68.
In the same order, the values of `O=C(C(=O)N1CCN(C(=O)c2ccccc2)CC1)c1c[nH]c2ccccc12` are 153 nM and 6.82.
In the same order, the values of `O=C(C(=O)N1CCN(C(=O)c2ccccc2)CC1)c1c[nH]c2cccc([N+](=O)[O-])c12` are 150 nM and 6.82.
`O=C(C(=O)N1CCN(C(=O)c2ccccc2)CC1)c1c[nH]c2cc(Cl)c(Cl)cc12` yielded an EC50 of 500 nM and a pEC50 of 6.3.
In the same order, the values of `O=C(C(=O)N1CCN(C(=O)c2ccccc2)CC1)c1c[nH]c2c(F)c(F)c(F)c(F)c12` are 1.7 nM and 8.77.
In the same order, the values of `O=C(C(=O)N1CCN(C(=O)c2ccccc2)CC1)c1c[nH]c2ccc(Br)cc12` are 1090 nM and 5.96.
The matching figures for `O=C(C(=O)N1CCN(C(=O)c2ccccc2)CC1)c1c[nH]c2c(Br)ccc(F)c12`: 0.13 nM and 9.89.
In the case of `CCOc1cccc2[nH]cc(C(=O)C(=O)N3CCN(C(=O)c4ccccc4)CC3)c12`, the EC50 worked out at 0.45 nM and the pEC50 is 9.35.
The matching figures for `CCCCOc1cccc2c(C(=O)C(=O)N3CCN(C(=O)c4ccccc4)CC3)c[nH]c12`: 0.14 nM and 9.85.
Consider `COc1cccc2c(C(=O)C(=O)N3CCN(C(=O)c4ccccc4)CC3)c[nH]c12`, for which a half-maximal response (EC50) required 6.6 nM and the pEC50 worked out at 8.18.
The matching figures for `Cc1cccc2c(C(=O)C(=O)N3CCN(C(=O)c4ccccc4)CC3)c[nH]c12`: 89.5 nM and 7.05.
For the compound `O=C(C(=O)N1CCN(C(=O)c2ccccc2)CC1)c1c[nH]c2cc(F)cc(F)c12`, the EC50 came out at 0.42 nM and the pEC50 stood at 9.38.
For the compound `COc1ccc(Br)c2[nH]cc(C(=O)C(=O)N3CCN(C(=O)c4ccccc4)CC3)c12`, the EC50 came out at 0.13 nM and the negative-log EC50 (pEC50) turned out to be 9.89.
`COc1ccc(F)c2c(C(=O)C(=O)N3CCN(C(=O)c4ccccc4)CC3)c[nH]c12` gave an EC50 of 0.06 nM and a negative logarithm of the EC50 (pEC50) of 10.22.
In the same order, the values of `O=C(C(=O)N1CCN(C(=O)c2ccccc2)CC1)c1c[nH]c2c(Br)cc(F)cc12` are 73.1 nM and 7.14.
Consider `O=C(C(=O)N1CCN(C(=O)c2ccccc2)CC1)c1c[nH]c2ccc(F)cc12`, for which the EC50 is 838 nM and the negative-log EC50 (pEC50) turned out to be 6.08.
Regarding `COc1ccc(C#N)c2[nH]cc(C(=O)C(=O)N3CCN(C(=O)c4ccccc4)CC3)c12`, the EC50 was 0.06 nM and the pEC50 amounted to 10.22.
Regarding `COc1ccc(OC)c2c(C(=O)C(=O)N3CCN(C(=O)c4ccccc4)CC3)c[nH]c12`, the EC50 came to 0.23 nM and the pEC50 came to 9.64.
In the same order, the values of `CCCCn1cc(C(=O)C(=O)N2CCN(C(=O)c3ccccc3)CC2)c2ccccc21` are 2650 nM and 5.58.
The matching figures for `Cc1ccc(F)c2c(C(=O)C(=O)N3CCN(C(=O)c4ccccc4)CC3)c[nH]c12`: 0.56 nM and 9.25.
In the same order, the values of `O=C(C(=O)N1CCN(C(=O)c2ccccc2)CC1)c1c[nH]c2cccc(O)c12` are 20100 nM and 4.7.
The compound `CC(=O)Oc1ccc2[nH]cc(C(=O)C(=O)N3CCN(C(=O)c4ccccc4)CC3)c2c1` registered an EC50 of 952 nM and a pEC50 of 6.02.
Take `CCOc1cccc2c(C(=O)C(=O)N3CCN(C(=O)c4ccccc4)CC3)c[nH]c12`: the EC50 was 0.5 nM and the pEC50 was found to be 9.3.
`O=C(C(=O)N1CCN(C(=O)c2ccccc2)CC1)c1c[nH]c2c(F)ccc(Br)c12` showed a 50% effective concentration (EC50) of 8.2 nM and a pEC50 of 8.09.
The matching figures for `COc1ccc(Cl)c2[nH]cc(C(=O)C(=O)N3CCN(C(=O)c4ccccc4)CC3)c12`: 0.07 nM and 10.15.
In the same order, the values of `O=C(C(=O)N1CCN(C(=O)c2ccccc2)CC1)c1c[nH]c2c(F)cccc12` are 7.3 nM and 8.14.
In the same order, the values of `O=C(C(=O)N1CCN(C(=O)c2ccccc2)CC1)c1c[nH]c2cc(F)c(Br)c(F)c12` are 23.1 nM and 7.64.
On to `O=C(C(=O)N1CCN(C(=O)c2ccccc2)CC1)c1cn(Cc2ccccc2)c2ccccc12`, for which it took 13800 nM to reach a half-maximal effect (EC50) and the pEC50 came to 4.86.
